Experimental findings from patent US7851637B2, “Compounds and methods for inhibiting the interaction of BCL proteins with binding partners” (Infinity Pharmaceuticals, Inc., priority 2004, dated 2010) are described below.

Test [1] addresses Bcl-2 (Homo sapiens, UniProt P10415). Briefly: Bcl-2 binding affinity analysis (fluorescence polarization binding assay). The source says: (§1) Bcl-2 and Bcl-xL binding can be determined using a variety of known methods. One such assay is a sensitive and quantitative in vitro binding assay using fluorescence polarization (FP) described by Wang, J. -L.; Zhang, Z -J.; Choksi, S.; Sjam. S.; Lu, Z.; Croce, C. M.; Alnenri, E. S.; Komgold, R.; Huang, Z. Cell permeable Bcl-2 binding peptides: a chemical approach to apoptosis induction in tumor cells. Cancer Res. 2000, 60, 1498-1502).
(§2) Bcl-2 and Bcl-xL binding affinity analysis data is presented below for various compounds of the invention.

The target in test [2] is Bcl-xL (Homo sapiens, UniProt Q07817). Briefly: Bcl-xL binding affinity analysis (fluorescence polarization binding assay). Details: scale not given here.
Source text: as §1, §2

Bcl-xL, sequence (Q07817 whole entry): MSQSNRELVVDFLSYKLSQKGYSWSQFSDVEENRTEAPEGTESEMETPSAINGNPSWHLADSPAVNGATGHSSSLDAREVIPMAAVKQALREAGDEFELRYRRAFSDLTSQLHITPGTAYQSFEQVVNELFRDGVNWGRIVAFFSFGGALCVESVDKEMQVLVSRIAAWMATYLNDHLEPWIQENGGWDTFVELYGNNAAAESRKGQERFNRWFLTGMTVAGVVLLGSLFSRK
Bcl-2, sequence (P10415 whole entry): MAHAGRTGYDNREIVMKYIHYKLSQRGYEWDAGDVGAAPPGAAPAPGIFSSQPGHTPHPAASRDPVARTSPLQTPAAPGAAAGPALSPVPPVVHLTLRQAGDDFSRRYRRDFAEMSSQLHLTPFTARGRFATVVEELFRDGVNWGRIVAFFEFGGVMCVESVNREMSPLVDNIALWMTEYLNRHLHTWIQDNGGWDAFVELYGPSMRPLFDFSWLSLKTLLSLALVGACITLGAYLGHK

As usually defined, the Ki is a measure of affinity in units of concentration, obtained from inhibition or displacement. Consider `CON(C)C(=O)c1ccc(-c2cccc(CN3O[C@@H](CO)[C@@H]([C@H](C)O)[C@H]3C(=O)N[C@H]3C[C@H]4C[C@@H]([C@@H]3C)C4(C)C)c2)cc1` [Compound 124], for which, in test [1], the Ki was less than 800 nM. The “Bcl-XL binding affinity Ki” value in test [2] was “♯”.

With `C[C@@H]1[C@@H](NC(=O)[C@@H]2[C@H]([C@H](C)O)[C@H](CO)ON2Cc2cccc(-c3cccc(C(=O)N4CCCN(C)CC4)c3)c2)C[C@H]2C[C@@H]1C2(C)C` [Compound 125], the inhibitory constant (Ki) in test [1] was less than 800 nM. In addition, the “Bcl-XL binding affinity Ki” value in test [2] is on record as “♯♯”.

For the molecule `C[C@@H]1[C@@H](NC(=O)[C@@H]2[C@H]([C@H](C)O)[C@H](CO)ON2Cc2cccc(-c3cccc(C(=O)N[C@H]4CCN(C)C4)c3)c2)C[C@H]2C[C@@H]1C2(C)C` [Compound 126], in test [1], the Ki was less than 800 nM. In addition, the “Bcl-XL binding affinity Ki” value in test [2] was “♯”.

With `C[C@@H]1[C@@H](NC(=O)[C@@H]2[C@H]([C@H](C)O)[C@H](CO)ON2Cc2cccc(-c3cccc(C(=O)NCCc4c[nH]cn4)c3)c2)C[C@H]2C[C@@H]1C2(C)C` [Compound 127], in test [1], the Ki is less than 800 nM. For the same molecule, in test [2], the “Bcl-XL binding affinity Ki” value is reported as “♯♯”.

Turning to `C[C@@H]1[C@@H](NC(=O)[C@@H]2[C@H]([C@H](C)O)[C@H](CO)ON2Cc2cccc(-c3ccc4c(c3)C(=O)N(C)C4=O)c2)C[C@H]2C[C@@H]1C2(C)C` [Compound 128], in test [1], the Ki was less than 800 nM. Further, the “Bcl-XL binding affinity Ki” value in test [2] is “♯”.

Take `C[C@@H]1[C@@H](NC(=O)[C@@H]2[C@H]([C@H](C)O)[C@H](CO)ON2Cc2cccc(-c3cccc(C(=O)N4CCN(C)CC4)c3)c2)C[C@H]2C[C@@H]1C2(C)C` [Compound 129]: in test [1], the Ki is less than 800 nM. Moreover, the “Bcl-XL binding affinity Ki” value in test [2] is “♯♯”.

Regarding `C[C@@H]1[C@@H](NC(=O)[C@@H]2[C@H]([C@H](C)O)[C@H](CO)ON2Cc2cccc(-c3ccc(S(=O)(=O)N(C)C)cc3)c2)C[C@H]2C[C@@H]1C2(C)C` [Compound 130], the Ki in test [1] is less than 800 nM. Moreover, in test [2], the “Bcl-XL binding affinity Ki” value is on record as “♯♯”.

With `C[C@@H]1[C@@H](NC(=O)[C@@H]2[C@H]([C@H](C)O)[C@H](CO)ON2Cc2cccc(-c3cccc(C(=O)NCCN(CCO)CCO)c3)c2)C[C@H]2C[C@@H]1C2(C)C` [Compound 131], the Ki in test [1] was less than 800 nM. Further, the “Bcl-XL binding affinity Ki” value in test [2] was “♯”.

`C[C@@H]1[C@@H](NC(=O)[C@@H]2[C@H]([C@H](C)O)[C@H](CO)ON2Cc2cccc(-c3cccc(C(=O)NCCN4CCOCC4)c3)c2)C[C@H]2C[C@@H]1C2(C)C` [Compound 132] registered a Ki in test [1] of less than 800 nM. For the same molecule, the “Bcl-XL binding affinity Ki” value in test [2] is recorded as “♯♯”.

Take `C[C@@H]1[C@@H](NC(=O)[C@@H]2[C@H]([C@H](C)O)[C@H](CO)ON2Cc2cccc(-c3ccc4c(=O)n(C)n(C)c(=O)c4c3)c2)C[C@H]2C[C@@H]1C2(C)C` [Compound 133]: the inhibition constant (Ki) in test [1] is less than 800 nM. Moreover, the “Bcl-XL binding affinity Ki” value in test [2] is listed as “♯”.

Turning to `C[C@@H]1[C@@H](NC(=O)[C@@H]2[C@H]([C@H](C)O)[C@H](CO)ON2Cc2cccc(-c3ccc(C(N)=O)cc3)c2)C[C@H]2C[C@@H]1C2(C)C` [Compound 134], the Ki in test [1] was less than 800 nM. Moreover, the “Bcl-XL binding affinity Ki” value in test [2] is “♯”.

As for `CCCNC(=O)c1cccc(-c2cccc(CN3O[C@@H](CO)[C@@H]([C@H](C)O)[C@H]3C(=O)N[C@H]3C[C@H]4C[C@@H]([C@@H]3C)C4(C)C)c2)c1` [Compound 135], the Ki in test [1] was less than 800 nM. Further, in test [2], the “Bcl-XL binding affinity Ki” value is given as “♯♯”.

In test [1], `C[C@@H]1[C@@H](NC(=O)[C@@H]2[C@H]([C@H](C)O)[C@H](CO)ON2Cc2cccc(-c3ccc(C(=O)N(C)C)c([N+](=O)[O-])c3)c2)C[C@H]2C[C@@H]1C2(C)C` [Compound 136] came in with a Ki of less than 800 nM. For the same molecule, the “Bcl-XL binding affinity Ki” value in test [2] is recorded as “♯”.

`C[C@@H]1[C@@H](NC(=O)[C@@H]2[C@H]([C@H](C)O)[C@H](CO)ON2Cc2cccc(-c3cccc(C(=O)N[C@@H]4CCN(C)C4)c3)c2)C[C@H]2C[C@@H]1C2(C)C` [Compound 137] returned a Ki in test [1] of less than 800 nM. Also, the “Bcl-XL binding affinity Ki” value in test [2] was “♯”.

In test [1], `C[C@@H]1[C@@H](NC(=O)[C@@H]2[C@H]([C@H](C)O)[C@H](CO)ON2Cc2cccc(-c3cccc(C(=O)NCC4CC4)c3)c2)C[C@H]2C[C@@H]1C2(C)C` [Compound 145] came in with a Ki of less than 800 nM. Further, the “Bcl-XL binding affinity Ki” value in test [2] is “♯♯”.

In the case of `CC(=O)NCCNC(=O)c1cccc(-c2cccc(CN3O[C@@H](CO)[C@@H]([C@H](C)O)[C@H]3C(=O)N[C@H]3C[C@H]4C[C@@H]([C@@H]3C)C4(C)C)c2)c1` [Compound 146], the Ki in test [1] was less than 800 nM. Further, the “Bcl-XL binding affinity Ki” value in test [2] is “♯”.

In test [1], `C[C@@H]1[C@@H](NC(=O)[C@@H]2[C@H]([C@H](C)O)[C@H](CO)ON2Cc2cccc(-c3cccc(O)c3)c2)C[C@H]2C[C@@H]1C2(C)C` [Compound 147] gave a Ki of less than 800 nM. Further, the “Bcl-XL binding affinity Ki” value in test [2] was “♯♯”.

Molecule `C[C@@H]1[C@@H](NC(=O)[C@@H]2[C@H]([C@H](C)O)[C@H](CO)ON2Cc2cccc(-c3cccc(C(=O)N(C)CCCN(C)C)c3)c2)C[C@H]2C[C@@H]1C2(C)C` [Compound 148] had a Ki in test [1] of less than 800 nM. Also, the “Bcl-XL binding affinity Ki” value in test [2] was “♯”.

As to `Cc1cc(-c2cccc(CN3O[C@@H](CO)[C@@H]([C@H](C)O)[C@H]3C(=O)N[C@H]3C[C@H]4C[C@@H]([C@@H]3C)C4(C)C)c2)ccc1C(=O)N(C)C` [Compound 150], the Ki in test [1] was less than 800 nM. The “Bcl-XL binding affinity Ki” value in test [2] is recorded as “♯♯”.

Regarding `CC(C)CNC(=O)c1cccc(-c2cccc(CN3O[C@@H](CO)[C@@H]([C@H](C)O)[C@H]3C(=O)N[C@H]3C[C@H]4C[C@@H]([C@@H]3C)C4(C)C)c2)c1` [Compound 151], the Ki in test [1] was less than 800 nM. Besides, the “Bcl-XL binding affinity Ki” value in test [2] is given as “♯♯”.

On to `C[C@@H]1[C@@H](NC(=O)[C@@H]2[C@H]([C@H](C)O)[C@H](CO)ON2Cc2cccc(-c3cccc(C(=O)N4CC[C@@H](N(C)C)C4)c3)c2)C[C@H]2C[C@@H]1C2(C)C` [Compound 152], for which, in test [1], the Ki was less than 800 nM. Besides, in test [2], the “Bcl-XL binding affinity Ki” value is “♯♯”.

In test [1], `COCCNC(=O)c1cccc(-c2cccc(CN3O[C@@H](CO)[C@@H]([C@H](C)O)[C@H]3C(=O)N[C@H]3C[C@H]4C[C@@H]([C@@H]3C)C4(C)C)c2)c1` [Compound 153] showed a Ki of less than 800 nM. Besides, the “Bcl-XL binding affinity Ki” value in test [2] is “♯”.

Consider `C[C@@H]1[C@@H](NC(=O)[C@@H]2[C@H]([C@H](C)O)[C@H](CO)ON2Cc2cccc(-c3cccc(C(=O)NCCCNC(=O)OC(C)(C)C)c3)c2)C[C@H]2C[C@@H]1C2(C)C` [Compound 154], for which the Ki in test [1] was less than 800 nM. Moreover, in test [2], the “Bcl-XL binding affinity Ki” value is “♯♯”.

Molecule `CCN1CCC[C@H]1CNC(=O)c1cccc(-c2cccc(CN3O[C@@H](CO)[C@@H]([C@H](C)O)[C@H]3C(=O)N[C@H]3C[C@H]4C[C@@H]([C@@H]3C)C4(C)C)c2OC)c1` [Compound 156] gave a Ki in test [1] of less than 800 nM. For the same molecule, the “Bcl-XL binding affinity Ki” value in test [2] is recorded as “♯”.

The molecule `COc1c(CN2O[C@@H](CO)[C@@H]([C@H](C)O)[C@H]2C(=O)N[C@H]2C[C@H]3C[C@@H]([C@@H]2C)C3(C)C)cccc1-c1cccc(C(=O)NCCN(C)C)c1` [Compound 165] had a Ki in test [1] of less than 800 nM. The “Bcl-XL binding affinity Ki” value in test [2] is “♯”.

In turn, `COc1c(CN2O[C@@H](CO)[C@@H]([C@H](C)O)[C@H]2C(=O)N[C@H]2C[C@H]3C[C@@H]([C@@H]2C)C3(C)C)cccc1-c1ccc(C(=O)N(C)C)cc1` [Compound 174] came in with a Ki in test [1] of less than 800 nM. Moreover, the “Bcl-XL binding affinity Ki” value in test [2] is “♯”.

Molecule `C[C@H](O)[C@@H]1[C@H](CO)ON(Cc2cccc(-c3cccc(NS(C)(=O)=O)c3)c2)[C@@H]1C(=O)NC1C[C@H]2C[C@@H]([C@@H]1C)C2(C)C` (stereo partly shown) [Compound 181] yielded an inhibition constant (Ki) in test [1] of less than 800 nM. Further, the “Bcl-XL binding affinity Ki” value in test [2] was “♯♯”.

`CC(=O)Nc1cccc(-c2cccc(CN3O[C@@H](CO)[C@@H]([C@H](C)O)[C@H]3C(=O)NC3C[C@H]4C[C@@H]([C@@H]3C)C4(C)C)c2)c1` (stereo partly shown) [Compound 183] gave a Ki in test [1] of less than 800 nM. Also, the “Bcl-XL binding affinity Ki” value in test [2] was “♯♯”.

`C[C@@H]1[C@@H](NC(=O)[C@@H]2[C@H]([C@H](C)O)[C@H](CO)ON2Cc2cccc(-c3ccc(C(=O)N(CCN(C)C)Cc4ccccc4)cc3)c2)C[C@H]2C[C@@H]1C2(C)C` [Compound 185] yielded an inhibition constant (Ki) in test [1] of less than 800 nM. Moreover, in test [2], the “Bcl-XL binding affinity Ki” value is “♯”.

Take `CCN(CC)CCN(CCN(CC)CC)C(=O)c1ccc(-c2cccc(CN3O[C@@H](CO)[C@@H]([C@H](C)O)[C@H]3C(=O)N[C@H]3C[C@H]4C[C@@H]([C@@H]3C)C4(C)C)c2)cc1` [Compound 188]: the Ki in test [1] is less than 800 nM. The “Bcl-XL binding affinity Ki” value in test [2] is “♯”.

Take `C[C@H](O)[C@@H]1[C@H](CO)ON(Cc2cccc(CN(CCN(C)C)CC3CCCCC3)c2)[C@@H]1C(=O)NC1C[C@H]2C[C@@H]([C@@H]1C)C2(C)C` (stereo partly shown) [Compound 190]: the inhibitory constant (Ki) in test [1] was less than 800 nM. Further, the “Bcl-XL binding affinity Ki” value in test [2] was “♯”.

The molecule `COc1c(CN(CCN(C)C)Cc2ccccc2)cccc1CN1O[C@@H](CO)[C@@H]([C@H](C)O)[C@H]1C(=O)NC1C[C@H]2C[C@@H]([C@@H]1C)C2(C)C` (stereo partly shown) [Compound 197] had a Ki in test [1] of less than 800 nM. Also, the “Bcl-XL binding affinity Ki” value in test [2] is “♯”.

The molecule `C[C@@H]1[C@@H](NC(=O)[C@@H]2[C@H]([C@H](C)O)[C@H](CO)ON2Cc2cccc(-c3cccc(S(C)(=O)=O)c3)c2)C[C@H]2C[C@@H]1C2(C)C` [Compound 200] returned a Ki in test [1] of less than 800 nM. Also, the “Bcl-XL binding affinity Ki” value in test [2] is “♯”.

On to `CSc1cccc(-c2cccc(CN3O[C@@H](CO)[C@@H]([C@H](C)O)[C@H]3C(=O)N[C@H]3C[C@H]4C[C@@H]([C@@H]3C)C4(C)C)c2)c1` [Compound 201], for which the inhibitory constant (Ki) in test [1] was less than 800 nM. The “Bcl-XL binding affinity Ki” value in test [2] was “♯”.

In turn, `C[C@@H]1[C@@H](NC(=O)[C@@H]2[C@H]([C@H](C)O)[C@H](CO)ON2Cc2cccc(-c3cccc([S+](C)[O-])c3)c2)C[C@H]2C[C@@H]1C2(C)C` (stereo partly shown) [Compound 202] registered a Ki in test [1] of less than 800 nM. For the same molecule, the “Bcl-XL binding affinity Ki” value in test [2] is “♯”.
